How the values were obtained:
[1] = target: T1, full-length hepatitis C viral protein NS3•4A (Hepatitis C virus genotype 1a, UniProt P27958); test: biochemical; design: species or system HCV sub-type strain 1a; details: Enzyme Assay 2 (HCV NS3 Peptide Cleavage Assay) activity, apparent Ki class
T1 construct: hexa-histidine (N); made in house; host or cells: Sf9 insect cells (baculovirus, pVL1392)

HCV NS3 protease domain = target: T2, HCV NS3 protease domain (Hepatitis C virus genotype 1b, UniProt Q9WMX2); test: biochemical; details: Enzyme Assay 1 (HCV NS3 Protease Domain Peptide Cleavage Assay) activity, apparent Ki class
T2 construct: The first 181 amino acids of NS3 (residues 1027-1207 of the viral polyprotein); hexa-histidine (C); made in house; host or cells: E. coli BL21/DE3 pLysS

| Structure (SMILES) | Ki [1] [nM] | Ki (HCV NS3 protease domain) [nM] |
| --- | --- | --- |
| CCC[C@H](NC(=O)[C@@H]1C[C@]2(CC(c3cc(Cl)cnc3OC)=NO2)CN1C(=O)[C@@H](NC(=O)CC1CCCCC1)C(C)(C)C)C(=O)C(=O)NC1CC1 [Compound 165] | < 100 | 100 to 500 |
| CCC[C@H](NC(=O)[C@@H]1C[C@]2(CC(c3cccc(Cl)c3)=NO2)CN1C(=O)[C@@H](NC(=O)[C@@H]1CCC(=O)N1Cc1cccs1)C(C)(C)C)C(=O)C(=O)NC1CC1 [Compound 30] | < 100 | 100 to 500 |
| CCC[C@H](NC(=O)[C@@H]1C[C@]2(CC(c3cccc(Cl)c3)=NO2)CN1C(=O)[C@@H](NC(=O)CC1CCCCC1)C(C)(C)C)C(=O)C(=O)NCc1ccccc1 [Compound 77] | < 100 | 100 to 500 |
| CCC[C@H](NC(=O)[C@@H]1C[C@]2(CC(c3cccc(Cl)c3)=NO2)CN1C(=O)[C@@H](NC(=O)CC1CCCCC1)C(C)(C)C)C(=O)C(=O)Nc1cccc(NS(C)(=O)=O)c1 [Compound 148] | > 500 | > 500 |
| CCC[C@H](NC(=O)[C@@H]1C[C@]2(CC(c3cccc(Cl)c3)=NO2)CN1C(=O)[C@@H](CC(=O)NC(C)C)C(C)C)C(=O)C(=O)NC1CC1 [Compound 280] | > 500 | > 500 |
| CCC[C@H](NC(=O)[C@@H]1C[C@]2(CC(c3cccc(Cl)c3)=NO2)CN1C(=O)C(NS(=O)(=O)c1ccccc1)c1ccccc1)C(=O)C(=O)NC1CC1 (stereo partly drawn) [Compound 501] | > 500 | > 500 |
| CCC[C@H](NC(=O)[C@@H]1C[C@]2(CC(c3cncc(Cl)c3)=NO2)CN1C(=O)[C@@H](NC(=O)CC1CCCCC1)C(C)(C)C)C(=O)C(=O)NC1CC1 [Compound 292] | < 100 | 100 to 500 |
| C#CC[C@H](C(=O)N[C@H](C(=O)N1C[C@@]2(CC(c3cccc(Cl)c3)=NO2)C[C@H]1C(=O)N[C@@H](CCC)C(=O)C(=O)NC1CC1)C(C)(C)C)C1CCCCC1 [Compound 266] | 100 to 500 | 100 to 500 |
| CC(C)(C)OC(=O)N[C@H]1CCCCC/C=C\[C@@H]2C[C@@]2(C(=O)O)NC(=O)[C@@H]2C[C@]3(CC(C(=O)c4ccccc4)=NO3)CN2C1=O [Compound 320] | > 500 | > 500 |
| CCC[C@H](NC(=O)[C@@H]1C[C@]2(CC(c3cccc(Cl)c3)=NO2)CN1C(=O)[C@H](CC(C)C)NC(C)=O)C(=O)C(=O)NC1CC1 [Compound 98] | 100 to 500 | > 500 |
| CCC[C@H](NC(=O)[C@@H]1C[C@]2(CC(c3cccc(Cl)c3)=NO2)CN1C(=O)C(C)N1Cc2ccccc2C1=O)C(=O)C(=O)NC1CC1 (stereo partly drawn) [Compound 574] | > 500 | > 500 |
| CCC[C@H](NC(=O)[C@@H]1C[C@]2(CC(c3cccc(Cl)c3)=NO2)CN1C(=O)[C@@H](NC(=O)CC1(C)CCCCC1)C(C)(C)C)C(=O)C(=O)NC1CC1 [Compound 29] | 100 to 500 | 100 to 500 |
| CCC[C@H](NC(=O)[C@@H]1C[C@]2(CC(c3cccc(Cl)c3)=NO2)CN1C(=O)[C@@H](NC(=O)CC1CCCCC1)C(C)(C)C)C(=O)C(=O)NCC1(c2ccc(OC)cc2)CCOCC1 [Compound 91] | > 500 | > 500 |
| CCC[C@H](NC(=O)[C@@H]1C[C@]2(CC(c3cccc(Cl)c3)=NO2)CN1C(=O)[C@@H](NC(=O)CC1CCCCC1)C(C)(C)C)C(=O)C(=O)NCCc1c[nH]c2ccc(OC)cc12 [Compound 302] | 100 to 500 | 100 to 500 |
| CCC[C@H](NC(=O)[C@@H]1C[C@]2(CC(c3cccc(Cl)c3)=NO2)CN1C(=O)CC(NS(=O)(=O)c1ccc(OC)cc1)C(C)C)C(=O)C(=O)NC1CC1 (stereo partly drawn) [Compound 395] | > 500 | > 500 |
| CCC[C@H](NC(=O)[C@@H]1C[C@]2(CC(c3cccc(Cl)c3)=NO2)CN1C(=O)[C@@H](CC(=O)NCc1ccccc1)C(C)C)C(=O)C(=O)NC1CC1 [Compound 10] | > 500 | > 500 |
| CCC[C@H](NC(=O)[C@@H]1C[C@]2(CC(c3cc(F)c(OCC)c(Cl)c3)=NO2)CN1C(=O)[C@@H](NC(=O)CC1CCCCC1)C(C)(C)C)C(=O)C(=O)NC1CC1 [Compound 136] | 100 to 500 | 100 to 500 |
| CC(C)(C)[C@H](NC(=O)CC1CCCCC1)C(=O)N1C[C@@]2(CC(c3cccc(Cl)c3)=NO2)C[C@H]1C(=O)N[C@@H](CC1CCC1)C(=O)C(=O)NC1CC1 [Compound 23] | 100 to 500 | < 100 |
| CCC[C@H](NC(=O)[C@@H]1C[C@]2(CC(c3cccc(Cl)c3)=NO2)CN1C(=O)CCN(c1ccccc1)S(=O)(=O)c1ccccc1)C(=O)C(=O)NC1CC1 [Compound 483] | > 500 | > 500 |
| CC(C)(C)[C@H](NC(=O)CC1CCCCC1)C(=O)N1C[C@@]2(CC(c3cccc(Cl)c3)=NO2)C[C@H]1C(=O)N[C@@H](CC1CC1)C(=O)C(N)=O [Compound 388] | < 100 | < 100 |
| CCC[C@H](NC(=O)[C@@H]1C[C@]2(CC(c3cccc(Cl)c3)=NO2)CN1C(=O)[C@@H](NC(=O)CC1CCCCC1)C(C)(C)C)C(=O)C(=O)Nc1cc(OC)ccc1OC [Compound 84] | > 500 | > 500 |

| Structure (SMILES) | Ki [1] [nM] | Ki (HCV NS3 protease domain) [nM] |
| --- | --- | --- |
| CCC[C@H](NC(=O)[C@@H]1C[C@]2(CC(c3cccc(Cl)c3)=NO2)CN1C(=O)[C@@H](NC(=O)CC1CCCCC1)C(C)(C)C)C(=O)C(=O)NC(C)Cc1c[nH]c2ccc(C(C)=O)cc12 (stereo partly drawn) [Compound 138] | > 500 | > 500 |
| CCC[C@H](NC(=O)[C@@H]1C[C@]2(CC(c3cc(Cl)c(OC)cc3OC)=NO2)CN1C(=O)[C@@H](NC(=O)CC1CCOCC1)C(C)(C)C)C(=O)C(=O)NC1CC1 [Compound 326] | 100 to 500 | 100 to 500 |
| CC(C)(C)[C@H](NC(=O)CC1CCCCC1)C(=O)N1C[C@@]2(CC(c3cncc(Cl)c3)=NO2)C[C@H]1C(=O)NC(CC1CCC1)C(=O)C(=O)NC1CC1 (stereo partly drawn) [Compound 132] | 100 to 500 | 100 to 500 |
| CCC[C@H](NC(=O)[C@@H]1C[C@]2(CC(c3cccc(Cl)c3)=NO2)CN1C(=O)[C@@H](NS(=O)(=O)c1ccc(Cl)cc1)C(C)CC)C(=O)C(=O)NC1CC1 (stereo partly drawn) [Compound 416] | 100 to 500 | > 500 |
| CCC[C@H](NC(=O)[C@@H]1C[C@]2(CC(c3cccc(Cl)c3)=NO2)CN1C(=O)[C@H](NC(=O)CC1CCCCC1)C(C)(C)C)C(=O)C(=O)N(CC)CC [Compound 113] | > 500 | > 500 |
| CCC[C@H](NC(=O)[C@@H]1C[C@]2(CC(c3cccc(Cl)c3)=NO2)CN1C(=O)[C@@H](NC(=O)CC1CCCCC1)C(C)(C)C)C(=O)C(=O)NCC1CC1 [Compound 265] | 100 to 500 | > 500 |
| CCC[C@H](NC(=O)[C@@H]1C[C@]2(CC(CC)=NO2)CN1C(=O)[C@@H](NC(=O)NC(C)(C)C)C(C)(C)C)C(=O)C(=O)NC1CC1 [Compound 559] | > 500 | > 500 |
| CCC[C@H](NC(=O)[C@@H]1C[C@]2(CC(c3cccc(Cl)c3)=NO2)CN1C(=O)[C@H](Cc1csc2ccccc12)NC(=O)CC1CCCCC1)C(=O)C(=O)NC1CC1 [Compound 336] | > 500 | > 500 |
| CCC[C@H](NC(=O)[C@@H]1C[C@]2(CC(c3cccc(Cl)c3)=NO2)CN1C(=O)[C@@H](NC(=O)C=C1CCCCC1)C(C)(C)C)C(=O)C(=O)NC1CC1 [Compound 252] | < 100 | 100 to 500 |
| CCC[C@H](NC(=O)[C@@H]1C[C@]2(CC(c3cccc(Cl)c3)=NO2)CN1C(=O)[C@@H](NC(=O)CC1CCCCC1)C(C)(C)C)C(=O)C(=O)N1CCCC1 [Compound 496] | > 500 | > 500 |
| CCC[C@H](NC(=O)[C@@H]1C[C@]2(CC(CC)=NO2)CN1C(=O)[C@@H](NC(=O)CC1CCOCC1)C(C)(C)C)C(=O)C(=O)NC1CC1 [Compound 566] | > 500 | > 500 |
| CCC[C@H](NC(=O)[C@@H]1C[C@]2(CC(c3cccc(Cl)c3)=NO2)CN1C(=O)[C@@H](NC(=O)CC1CCCCC1)C(C)(C)C)C(=O)C(=O)NCCC(=O)Nc1cc(OC)c2ccccc2c1 [Compound 206] | 100 to 500 | 100 to 500 |
| CCC[C@H](NC(=O)[C@@H]1C[C@]2(CC(c3cccc(Cl)c3)=NO2)CN1C(=O)CCn1c(=O)oc2ccccc21)C(=O)C(=O)NC1CC1 [Compound 376] | > 500 | > 500 |
| CCC[C@H](NC(=O)[C@@H]1C[C@]2(CC(c3cccc(Cl)c3)=NO2)CN1C(=O)[C@@H](NC(=O)CC1CCCCC1)C(C)(C)C)C(=O)C(=O)NCCc1cccc(OC)c1 [Compound 540] | 100 to 500 | 100 to 500 |
| CCC[C@H](NC(=O)[C@@H]1C[C@]2(CC(c3cccc(Cl)c3)=NO2)CN1C(=O)C1CCN(c2ccccc2)C1=O)C(=O)C(=O)NC1CC1 (stereo partly drawn) [Compound 65] | > 500 | > 500 |
| CCC[C@H](NC(=O)[C@@H]1C[C@]2(CC(c3cccc(Cl)c3)=NO2)CN1C(=O)[C@@H](NC(=O)[C@@H](C)C1CCCCC1)C(C)(C)C)C(=O)C(=O)NC1CC1 [Compound 284] | 100 to 500 | 100 to 500 |
| CCC[C@H](NC(=O)[C@@H]1C[C@]2(CC(c3cnc(OC)c(Cl)c3)=NO2)CN1C(=O)[C@@H](NC(=O)CC1CCCCC1)C(C)(C)C)C(=O)C(=O)NC1CC1 [Compound 312] | < 100 | < 100 |
| CNC(=O)C(=O)C(CC1CCC1)NC(=O)[C@@H]1C[C@]2(CC(c3cccc(Cl)c3)=NO2)CN1C(=O)[C@@H](NC(=O)CC1CCOC(C)(C)C1)C(C)(C)C (stereo partly drawn) [Compound 419] | 100 to 500 | 100 to 500 |
| CCC[C@H](NC(=O)[C@@H]1C[C@]2(CC(c3cccc(Cl)c3)=NO2)CN1C(=O)C(NS(=O)(=O)c1ccc(F)cc1)C(C)C)C(=O)C(=O)NC1CC1 (stereo partly drawn) [Compound 100] | > 500 | > 500 |
| CC(C)(C)[C@H](NC(=O)CC1CCCCC1)C(=O)N1C[C@@]2(CC(c3cccc(Cl)c3)=NO2)C[C@H]1C(=O)NC(CC1CCC1)C(=O)C(=O)NCC(F)(F)F (stereo partly drawn) [Compound 268] | > 500 | 100 to 500 |
| CCC[C@H](NC(=O)[C@@H]1C[C@]2(CC(c3cccc(Cl)c3)=NO2)CN1C(=O)[C@@H](NC(=O)CC1CCCCC1)C(C)(C)C)C(=O)C(=O)Nc1cccc(C#N)c1 [Compound 588] | > 500 | > 500 |

Source: US7964624B1, “Inhibitors of serine proteases” (priority 2005, dated 2011)
